6 compounds from PubChem BioAssay (NCI) can be followed below.

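Compound exposure: 48 hours, 5 concentrations, 96-well plates. GI50 is the concentration that inhibits growth by half. Definition used: TGI = concentration required for complete inhibition of growth.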

Some test systems named below: A498 renal; COLO 205 colon; HCT-15 colon; HOP-92 NSCLC; LOX IMVI melanoma; MALME-3M melanoma; NCI-H460 lung; NCI-H522 lung; OVCAR-3 ovarian; OVCAR-4 ovarian.
What all share (assay): inhibition of tumour cell growth, NCI panel, 48 h

With `Cc1noc2c1-c1ccccc1C(c1ccc(Cl)cc1)=N[C@H]2CC(N)=O`, the GI50 is 0.235 µM in the test with A498 renal; 0.646 µM in the test with COLO 205 colon; 2.49 µM in the test with HCT-15 colon; 0.54 µM in the test on HOP-92 NSCLC; 2.3 µM in the test on LOX IMVI melanoma; 5.17 µM in the test on MALME-3M melanoma. Further, the GI50 was 16.7 µM in the test with NCI-H460 lung, 8.2 µM in the test on NCI-H522 lung, 3.75 µM with OVCAR-3 ovarian and 4.35 µM in the test with OVCAR-4 ovarian. Besides, the TGI is 15.5 µM in the test with A498 renal; > 51.7 µM with COLO 205 colon; > 100 µM with HCT-15 colon; > 100 µM with HOP-92 NSCLC; > 100 µM in the test on LOX IMVI melanoma; > 100 µM in the test on MALME-3M melanoma. Further, the TGI in the test on NCI-H460 lung, with NCI-H522 lung, in the test with OVCAR-3 ovarian and in the test with OVCAR-4 ovarian was > 100 µM throughout.
For the compound `COc1cc(-c2nnc3n2NC=C(C(=O)O)S3)cc(OC)c1OC`, the TGI with A498 renal was > 100 µM; with COLO 205 colon, > 70.3 µM; in the test with HCT-15 colon, > 67.5 µM; with HOP-92 NSCLC, > 100 µM; with LOX IMVI melanoma, > 100 µM; in the test on MALME-3M melanoma it was > 100 µM. Besides, the TGI is > 100 µM in the test on NCI-H460 lung, > 100 µM in the test with NCI-H522 lung, > 100 µM in the test with OVCAR-3 ovarian and > 87.5 µM in the test with OVCAR-4 ovarian.
With `COc1cc(/C=C/C(=O)C(C(=O)/C=C/c2ccc(OC(=O)CCNC34CC5CC(CC(C5)C3)C4)c(OC)c2)C(=O)CCNC23CC4CC(CC(C4)C2)C3)ccc1OC(=O)CCNC12CC3CC(CC(C3)C1)C2` (stereo not given), the GI50 was 3.47 µM in the test with A498 renal; 4.27 µM with COLO 205 colon; 3.21 µM with HCT-15 colon; 4.75 µM with HOP-92 NSCLC; 1.98 µM in the test with LOX IMVI melanoma; 2.44 µM with MALME-3M melanoma. The GI50 is 2.98 µM in the test on NCI-H460 lung, 3.46 µM in the test on NCI-H522 lung, 4.98 µM with OVCAR-3 ovarian and 8.89 µM in the test on OVCAR-4 ovarian. Further, the TGI turned out to be 13.6 µM with A498 renal; 17.8 µM in the test with COLO 205 colon; 7.51 µM in the test with HCT-15 colon; 31.4 µM in the test with HOP-92 NSCLC; 3.94 µM in the test with LOX IMVI melanoma; 9.92 µM in the test with MALME-3M melanoma. The TGI with NCI-H460 lung was 10.2 µM; in the test on NCI-H522 lung, 15.2 µM; with OVCAR-3 ovarian it was > 100 µM; with OVCAR-4 ovarian it was 57.1 µM.
With `CS(=O)(=O)CS(=O)(=O)OCCCl`, the TGI in the test with A498 renal came out at 1350 µM; in the test on COLO 205 colon it was 831 µM; with HCT-15 colon it was 1090 µM; in the test with HOP-92 NSCLC, 824 µM; in the test with LOX IMVI melanoma, 497 µM; with MALME-3M melanoma it was 1270 µM. For the same compound, the TGI in the test on NCI-H460 lung is 448 µM; with NCI-H522 lung, 723 µM; with OVCAR-3 ovarian, 983 µM; with OVCAR-4 ovarian it was 1040 µM.
For `O=C(CCN1CCOCC1)Nc1cccc(-n2cc(-c3ccncc3)c(-c3ccc(Cl)c(O)c3)n2)c1`, the GI50 was 1.52 µM in the test with A498 renal; 1.66 µM with COLO 205 colon; 1.24 µM in the test on HCT-15 colon; 2.06 µM with HOP-92 NSCLC; 1.91 µM in the test on LOX IMVI melanoma; 1.65 µM in the test on MALME-3M melanoma. The GI50 with NCI-H460 lung is 2.79 µM; with NCI-H522 lung, 0.448 µM; with OVCAR-3 ovarian it was 0.644 µM; with OVCAR-4 ovarian it was 3.07 µM. The TGI in the test with A498 renal was determined as 5.48 µM; in the test on COLO 205 colon it was 4.27 µM; in the test on HCT-15 colon it was 10.8 µM; with HOP-92 NSCLC, 14 µM; in the test on LOX IMVI melanoma, 11.8 µM; with MALME-3M melanoma it was 10.8 µM. For the same compound, the TGI was 12.4 µM with NCI-H460 lung, 5.4 µM in the test with NCI-H522 lung, 7.16 µM with OVCAR-3 ovarian and 17.7 µM with OVCAR-4 ovarian.
Take `c1ccc2c(c1)c1ccccc1c1ccccc21`: the GI50 with A498 renal, with COLO 205 colon, with HCT-15 colon, in the test on HOP-92 NSCLC, in the test on LOX IMVI melanoma and in the test with MALME-3M melanoma was > 100 µM throughout. Further, the GI50 in the test on NCI-H460 lung, with NCI-H522 lung, with OVCAR-3 ovarian and in the test on OVCAR-4 ovarian was > 100 µM in each case. In addition, the TGI in the test with A498 renal, in the test with COLO 205 colon, with HCT-15 colon, in the test with HOP-92 NSCLC, in the test with LOX IMVI melanoma and in the test with MALME-3M melanoma was > 100 µM each time. Moreover, the TGI in the test on NCI-H460 lung, with NCI-H522 lung, with OVCAR-3 ovarian and with OVCAR-4 ovarian was > 100 µM each time.
